The source of these data is PMC4618646 (Pharmacology Research & Perspectives, 2015).

The test system of series [1] is 314 diverse molecular targets. Nature of the series: Eurofins Panlabs broad in vitro panel, 10 μmol/L single concentration screen. As to conditions: at nine of 314 targets.
Series [2] has as its target T1, Adenosine A3 receptor (Homo sapiens, UniProt P0DMS8).
T1 sequence (P0DMS8 1-318): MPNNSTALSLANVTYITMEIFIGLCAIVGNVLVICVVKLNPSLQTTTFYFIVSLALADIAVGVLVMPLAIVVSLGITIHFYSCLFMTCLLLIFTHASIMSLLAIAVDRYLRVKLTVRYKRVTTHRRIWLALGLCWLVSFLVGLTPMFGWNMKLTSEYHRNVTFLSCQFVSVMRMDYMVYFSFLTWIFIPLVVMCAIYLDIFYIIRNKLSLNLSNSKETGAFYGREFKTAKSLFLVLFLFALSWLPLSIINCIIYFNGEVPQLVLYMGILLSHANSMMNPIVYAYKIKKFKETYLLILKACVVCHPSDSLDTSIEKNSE
The format is biochemical.

Series [3] deals with T2, UDP glucuronosyltransferase, UGT1A1 (Homo sapiens, UniProt P22309).
T2 sequence (P22309 26-533): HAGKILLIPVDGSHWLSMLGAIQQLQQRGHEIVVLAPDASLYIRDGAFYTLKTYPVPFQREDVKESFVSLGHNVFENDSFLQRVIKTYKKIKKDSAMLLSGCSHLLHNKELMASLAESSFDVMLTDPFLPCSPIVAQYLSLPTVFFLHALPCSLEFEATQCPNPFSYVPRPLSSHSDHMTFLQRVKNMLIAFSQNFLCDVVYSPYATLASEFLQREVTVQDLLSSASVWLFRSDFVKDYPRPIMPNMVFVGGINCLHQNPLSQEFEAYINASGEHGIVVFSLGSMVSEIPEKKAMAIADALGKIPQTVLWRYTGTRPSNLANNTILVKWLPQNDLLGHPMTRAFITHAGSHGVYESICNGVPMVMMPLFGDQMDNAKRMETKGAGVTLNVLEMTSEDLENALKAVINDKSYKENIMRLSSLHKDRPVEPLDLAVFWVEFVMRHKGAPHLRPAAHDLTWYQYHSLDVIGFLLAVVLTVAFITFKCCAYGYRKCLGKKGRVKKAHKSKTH
Nature of the series: UDP glucuronosyltransferase, UGT1A1. The format is biochemical.

The test system of another series is adenosine transporter. In kind it is cell-based, human.
Series [4] has as its system Purified human recombinant kinases. In kind it is biochemical. As to conditions: median estimate of curve top showing <50% inhibition.
For the next series, the system named is human kinases. In kind it is binding. Particulars: 10 μmol/L single concentration screen; for 197 of 387 kinases.
Series [5] is classed as physicochemical.
Series [6] addresses T1, Adenosine A3 receptor. The series can be described thus: Adenosine A3 receptor. Particulars: Radioligand binding Ki.
The next series has as its target Transporter, monoamine. The series can be described thus: Transporter, monoamine. The format is binding. As to conditions: Vesicular monoamine transporter (rabbit).
The next series deals with Phosphodiesterase PDE5 (Homo sapiens, UniProt O76074). The series can be described thus: Phosphodiesterase PDE5. In kind it is biochemical.
The next series addresses Cathepsin S (Homo sapiens, UniProt P25774). The series can be described thus: Cathepsin S. The format is biochemical.
The target in series [7] is T3, Fatty acid amide hydrolase (FAAH) (Rattus norvegicus, UniProt P97612).
T3 sequence (P97612 1-579): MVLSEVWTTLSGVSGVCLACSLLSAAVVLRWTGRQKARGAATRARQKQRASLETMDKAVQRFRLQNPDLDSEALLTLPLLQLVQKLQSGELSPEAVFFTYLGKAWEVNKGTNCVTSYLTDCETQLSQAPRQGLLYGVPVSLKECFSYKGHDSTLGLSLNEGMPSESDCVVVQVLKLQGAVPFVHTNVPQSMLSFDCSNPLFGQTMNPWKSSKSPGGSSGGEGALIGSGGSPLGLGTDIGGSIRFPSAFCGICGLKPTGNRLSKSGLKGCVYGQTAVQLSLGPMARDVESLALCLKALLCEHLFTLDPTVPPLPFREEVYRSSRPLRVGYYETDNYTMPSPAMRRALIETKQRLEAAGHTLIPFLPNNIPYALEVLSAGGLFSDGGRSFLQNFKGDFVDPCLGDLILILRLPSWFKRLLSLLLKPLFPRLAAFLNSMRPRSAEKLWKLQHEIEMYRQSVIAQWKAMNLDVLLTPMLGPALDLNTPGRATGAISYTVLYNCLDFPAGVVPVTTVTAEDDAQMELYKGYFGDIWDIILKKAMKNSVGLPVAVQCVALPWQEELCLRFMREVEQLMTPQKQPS
Nature of the series: Fatty acid amide hydrolase. In kind it is biochemical.

The next series addresses Cathepsin L (Homo sapiens, UniProt P07711). Nature of the series: Cathepsin L. The format is biochemical.
For the next series, the target named is T4, Lipoxygenase 5-LO (Homo sapiens, UniProt P09917).
T4 sequence (P09917 1-674): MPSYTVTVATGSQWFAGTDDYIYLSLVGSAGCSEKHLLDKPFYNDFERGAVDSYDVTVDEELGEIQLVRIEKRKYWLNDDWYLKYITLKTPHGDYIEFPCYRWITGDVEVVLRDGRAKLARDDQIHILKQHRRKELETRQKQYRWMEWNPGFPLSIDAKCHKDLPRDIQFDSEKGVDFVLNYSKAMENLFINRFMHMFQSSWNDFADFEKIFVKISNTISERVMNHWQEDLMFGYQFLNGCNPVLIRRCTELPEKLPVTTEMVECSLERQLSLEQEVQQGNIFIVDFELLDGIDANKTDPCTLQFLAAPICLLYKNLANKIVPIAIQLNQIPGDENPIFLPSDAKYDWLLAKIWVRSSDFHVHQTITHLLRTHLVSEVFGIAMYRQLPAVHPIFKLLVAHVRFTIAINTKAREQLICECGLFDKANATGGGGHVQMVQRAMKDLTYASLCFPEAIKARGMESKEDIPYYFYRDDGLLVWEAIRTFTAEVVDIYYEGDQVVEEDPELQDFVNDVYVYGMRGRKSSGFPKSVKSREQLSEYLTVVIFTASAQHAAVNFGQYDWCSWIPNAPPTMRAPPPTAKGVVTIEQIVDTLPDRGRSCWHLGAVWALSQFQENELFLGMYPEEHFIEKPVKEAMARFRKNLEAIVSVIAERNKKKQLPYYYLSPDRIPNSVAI
The series can be described thus: Lipoxygenase 5-LO. The format is biochemical.

A further series has as its system KDR (VEGFR2). Nature of the series: KDR inhibition measured in HUVEC cells. The format is cell-based, human. As to conditions: from KDR IC50 data of ref McTigue et al. [2012].
The conditions of series [8]: phase II clinical trials for RA; ref Silverman et al. [2008]; cited from earlier work.
The conditions of series [9]: ref Mikus et al. [2013]; cited from earlier work.

Converted amounts (≈) assume the structure as drawn. Like-named read-outs stand apart in the source and are kept apart here.

Sequence of Cathepsin S (P25774 115-331): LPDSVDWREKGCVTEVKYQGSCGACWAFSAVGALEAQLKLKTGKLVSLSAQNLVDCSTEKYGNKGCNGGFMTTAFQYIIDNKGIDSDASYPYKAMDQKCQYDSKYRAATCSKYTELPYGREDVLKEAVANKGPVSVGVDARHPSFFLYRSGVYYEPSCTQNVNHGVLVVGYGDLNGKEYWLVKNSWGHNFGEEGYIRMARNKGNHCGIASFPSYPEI
Sequence of Cathepsin L (P07711 114-333): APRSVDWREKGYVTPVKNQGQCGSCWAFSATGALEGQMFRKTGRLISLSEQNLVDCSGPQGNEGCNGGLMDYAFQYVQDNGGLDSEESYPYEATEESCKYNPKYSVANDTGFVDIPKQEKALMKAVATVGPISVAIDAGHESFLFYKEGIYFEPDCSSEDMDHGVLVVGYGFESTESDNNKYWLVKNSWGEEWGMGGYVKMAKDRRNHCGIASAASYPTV

In series [1], `COc1cc(Nc2ncc(F)c(Nc3ccc4c(n3)NC(=O)C(C)(C)O4)n2)cc(OC)c1OC` [R406] yielded an inhibition of over 50%. Besides, the Mode of action entry on Adenosine A3 receptor [2] (Adenosine A3 receptor (human)) is recorded as “Antagonist”; in series [3] (UDP glucuronosyltransferase UGT1A1 (human)), “Inhibitor”; in the series with adenosine transporter (Adenosine transporter (human)), “Inhibitor”; at Phosphodiesterase PDE5 (Phosphodiesterase PDE5 (human)) it was “Inhibitor”; at Cathepsin S (Cathepsin S (human)), “Inhibitor”; in [7] (Fatty acid amide hydrolase (rat)), “Inhibitor”. The Mode of action entry on Cathepsin L (Cathepsin L (human)) and on Lipoxygenase 5-LO (5-Lipoxygenase (human)) was “Inhibitor” in each case. Further, the “effect of R406 on its own on GTPγS binding” value on Adenosine A3 receptor [2] (concentrations up to 10 μmol/L, absence of agonist) is listed as “no effect”. Further, the IC50 in series [3] (Radioligand binding or enzyme activity IC50, UDP glucuronosyltransferase UGT1A1 (human)) worked out at 143 nM; in the series on adenosine transporter (read-out: IC50, inhibition of adenosine uptake, U937 cells, [^3H]adenosine) it was 100 nM; in the series on Transporter, monoamine (read-out: Radioligand binding or enzyme activity IC50), 1960 nM; at Phosphodiesterase PDE5 (Radioligand binding or enzyme activity IC50, Phosphodiesterase PDE5 (human)), 308 nM; at Cathepsin S (Radioligand binding or enzyme activity IC50, Cathepsin S (human)), 11900 nM; in series [7] (Radioligand binding or enzyme activity IC50, Fatty acid amide hydrolase (rat)), 1510 nM. The IC50 was 5930 nM on Cathepsin L (Radioligand binding or enzyme activity IC50, Cathepsin L (human)) and 5500 nM at Lipoxygenase 5-LO (Radioligand binding or enzyme activity IC50, 5-Lipoxygenase (human)). Besides, the “activity in the remaining 19 of 139 kinase activity assays” value in series [4] is “inactive”. Further, the “inhibition of the qPCR signal” value in the series with human kinases was at least 80%. Further, the solubility was about 140 mM (≈ 65.9 mg/mL) in series [5] (solubility in DMSO, 100% DMSO) and 0.0002 mM (≈ 9.41e-05 mg/mL) in series [5] (solubility in phosphate-buffered saline, physiological pH). For the same compound, the Ki on Adenosine A3 receptor [6] is 17 nM; on Transporter, monoamine (read-out: Radioligand binding Ki) it was 1630 nM.
In the case of `COc1cc2c(Oc3ccc4[nH]c(C)cc4c3F)ncnc2cc1OCCCN1CCCC1` [cediranib], the “fold more potent at KDR than sunitinib” value in the series on KDR (VEGFR2) is about 31 fold.
With `CNC(=O)[C@H]1O[C@@H](n2cnc3c(NCc4cccc(I)c4)ncnc32)[C@H](O)[C@@H]1O` [CF101], in [8], the “adverse effects on blood pressure” value is “no adverse effects on blood pressure”.
Turning to `COc1ccc(C(=O)Nc2nc3ccccc3c(NCc3ccccc3)c2C#N)cc1` [SSR161421], the “effects in animal models of asthma” value in [9] is on record as “beneficial effects”.
